Consider 1 molecule from patent US20240091242A1, “LIPIDS THAT REDUCE LUNG DAMAGE, IMPROVE PULMONARY FUNCTION AND DECREASE PRO-INFLAMMATORY CYTOKINES” (Signpath Pharma, Inc., priority 2021, published 2024).

Assay [1] can be described thus: Detectable activity after a single dose. The class given is in vivo.
The next assay relates to murine LPS ARDS model. The experiment in a line: Histopathological evaluation (lung injury score), murine LPS ARDS model. In kind it is in vivo, mouse. Here is the method:
In the ARDS group, mice received Escherichia coli O111:B4 lipopolysaccharide (50 μg in 0.05 mL saline, i.t.), while, in the control group, the animals received an instillation of saline (0.05 mL, i.t.). For intratracheal instillation, mice were slightly anesthetized with isoflurane.
The lipid SPPCT-800 was dissolved in water (low dose—2 mg/ml; high dose—20 mg/ml). For the 24-hour study, two treatment approaches were used. Mice received a single dose of SPPCT-800 (200 mg/kg, per gavage) as prevention (30 minutes before the LPS instillation), or as a single dose of either 20 mg/kg or 200 mg/kg as therapy (3-hour after the LPS instillation). For the 72-hour study, mice received a total of 8 treatments of SPPCT-800 (200 mg/kg) starting at 3-hour after the LPS instillation. Disease progression in mice was assessed by the evaluation of pulmonary functions, blood oxygen saturation, and body weight change. On the terminal day of each study (24 hours or 72 hours), measurement of cytokine levels in the plasma and BALF, and histopathology evaluations were done.
Histopathological Evaluation. […] A blinded histologist evaluated the general morphology of alveolar septa, lung structure, and inflammation according to the general scoring described and adopted by Matute-Bello, et al.^25, 26
Statistical Analysis. Results are expressed as means±SEM. […]

Each structure is given as a SMILES string.

As for `CCCCCCCCCCCCCC(=O)OCC(COP(=O)([O-])OCC(COC(=O)CCC)OC(=O)CCC)OC(=O)CCCCCCCCCCCCC.CCCCCCCCCCCCCC(=O)OCC(COP(=O)([O-])OCC(COC(=O)CCC)OC(=O)CCC)OC(=O)CCCCCCCCCCCCC.[Mg+2]` (stereo not drawn) [SPPCT-800], the “single dose with detectable activity” value in assay [1] turned out to be 1 mg/kg. The lung injury score in the assay on murine LPS ARDS model (at 24 hours, given 30 minutes prior to LPS as a preventative, P<0.01) came out at 0.3; with murine LPS ARDS model (at 72 hours, multi-dose treatment group), 2.2.
